Source: patent publication US20210267204A1, “MICROBIOCIDAL OXADIAZOLE DERIVATIVES” (SYNGENTA CROP PROTECTION AG, priority 2018, published 2021)

Tests used:
[1] = tested on: Glomerella lagenarium (Colletotrichum lagenarium); test: Fungicidal activity against Glomerella lagenarium (Colletotrichum lagenarium) liquid culture / cucumber / preventative (anthracnose); assay type: cell-based; conditions: Colletotrichum orbiculare; 20 ppm in the applied formulation; liquid culture in PDB, 24° C.; 3 to 4 days after application; compared to untreated control; read-out: disease control (inhibition of growth measured photometrically)
Procedure: Mycelia fragments or conidia suspensions of a fungus prepared either freshly from liquid cultures of the fungus or from cryogenic storage, are directly mixed into nutrient broth. DMSO solutions of the test compound (max. 10 mg/mL) are diluted with 0.025% Tween20 by a factor of 50 and 10 μL of this solution is pipetted into a microtiter plate (96-well format). The nutrient broth containing the fungal spores/mycelia fragments is then added to give an end concentration of the tested compound. The test plates are incubated in the dark at 24° C. and 96% relative humidity (rh). The inhibition of fungal growth is determined photometrically after 2 to 7 days, depending on the pathosystem, and percent antifungal activity relative to the untreated check is calculated. Conidia of the fungus from cryogenic storage are directly mixed into nutrient broth (PDB—potato dextrose broth). After placing a (DMSO) solution of test compound into a microtiter plate (96-well format), the nutrient broth containing the fungal spores is added. The test plates are incubated at 24° C. and the inhibition of growth is measured photometrically 3 to 4 days after application. The following compounds at 20 ppm in the applied formulation give at least 80% disease control in this test when compared to untreated control under the same conditions, which show extensive disease development.

[2] = tested on: Puccinia recondita f. sp. tritici; test: Fungicidal activity against Puccinia recondita f. sp. tritici / wheat / leaf disc curative (brown rust); assay type: in vivo; conditions: foliar, 200 ppm in the applied formulation, wheat leaf segments cv. Kanzler, applied 1 day after inoculation, assessed 6 to 8 days after application, compared to untreated, read-out: disease control
Procedure: Leaf disks or leaf segments of various plant species are cut from plants grown in a greenhouse. The cut leaf disks or segments are placed in multiwell plates (24-well format) onto water agar. The leaf disks are sprayed with a test solution before (preventative) or after (curative) inoculation. Compounds to be tested are prepared as DMSO solutions (max. 10 mg/mL) which are diluted to the appropriate concentration with 0.025% Tween20 just before spraying. The inoculated leaf disks or segments are incubated under defined conditions (temperature, relative humidity, light, etc.) according to the respective test system. A single evaluation of disease level is carried out 3 to 14 days after inoculation, depending on the pathosystem. Percent disease control relative to the untreated check leaf disks or segments is then calculated. Wheat leaf segments cv. Kanzler are placed on agar in multiwell plates (24-well format). The leaf segments are then inoculated with a spore suspension of the fungus. Plates were stored in darkness at 19° C. and 75% relative humidity. The formulated test compound diluted in water was applied 1 day after inoculation. The leaf segments were incubated at 19° C. and 75% relative humidity under a light regime of 12 hours light/12 hours darkness in a climate cabinet and the activity of a compound was assessed as percent disease control compared to untreated when an appropriate level of disease damage appears in untreated check leaf segments (6 to 8 days after application). The following compounds at 200 ppm in the applied formulation give at least 80% disease control in this test when compared to untreated control leaf disks under the same conditions, which show extensive disease development.

[3] = tested on: Puccinia recondita f. sp. tritici; test: Fungicidal activity against Puccinia recondita f. sp. tritici / wheat / leaf disc preventative (brown rust); assay type: in vivo; conditions: foliar, 200 ppm in the applied formulation, wheat leaf segments cv. Kanzler, inoculated 1 day after application, assessed 7 to 9 days after application, compared to untreated, read-out: disease control
Procedure: Leaf disks or leaf segments of various plant species are cut from plants grown in a greenhouse. The cut leaf disks or segments are placed in multiwell plates (24-well format) onto water agar. The leaf disks are sprayed with a test solution before (preventative) or after (curative) inoculation. Compounds to be tested are prepared as DMSO solutions (max. 10 mg/mL) which are diluted to the appropriate concentration with 0.025% Tween20 just before spraying. The inoculated leaf disks or segments are incubated under defined conditions (temperature, relative humidity, light, etc.) according to the respective test system. A single evaluation of disease level is carried out 3 to 14 days after inoculation, depending on the pathosystem. Percent disease control relative to the untreated check leaf disks or segments is then calculated. Wheat leaf segments cv. Kanzler were placed on agar in multiwell plates (24-well format) and sprayed with the formulated test compound diluted in water. The leaf disks were inoculated with a spore suspension of the fungus 1 day after application. The inoculated leaf segments were incubated at 19° C. and 75% relative humidity (rh) under a light regime of 12 hours light/12 hours darkness in a climate cabinet and the activity of a compound was assessed as percent disease control compared to untreated when an appropriate level of disease damage appears in untreated check leaf segments (7 to 9 days after application). The following compounds at 200 ppm in the applied formulation give at least 80% disease control in this test when compared to untreated control leaf disks under the same conditions, which show extensive disease development.

Phakopsora pachyrhizi = test: Fungicidal activity against Phakopsora pachyrhizi / soybean / leaf disc preventative (Asian soybean rust); assay type: in vivo; conditions: foliar, 200 ppm in the applied formulation, soybean leaf disks, inoculated one day after application, assessed 12 to 14 days after application, compared to untreated, read-out: disease control
Procedure: Leaf disks or leaf segments of various plant species are cut from plants grown in a greenhouse. The cut leaf disks or segments are placed in multiwell plates (24-well format) onto water agar. The leaf disks are sprayed with a test solution before (preventative) or after (curative) inoculation. Compounds to be tested are prepared as DMSO solutions (max. 10 mg/mL) which are diluted to the appropriate concentration with 0.025% Tween20 just before spraying. The inoculated leaf disks or segments are incubated under defined conditions (temperature, relative humidity, light, etc.) according to the respective test system. A single evaluation of disease level is carried out 3 to 14 days after inoculation, depending on the pathosystem. Percent disease control relative to the untreated check leaf disks or segments is then calculated. Soybean leaf disks are placed on water agar in multiwell plates (24-well format) and sprayed with the formulated test compound diluted in water. One day after application leaf discs are inoculated by spraying a spore suspension on the lower leaf surface. After an incubation period in a climate cabinet of 24-36 hours in darkness at 20° C. and 75% rh leaf disc are kept at 20° C. with 12 hours light/day and 75% rh. The activity of a compound is assessed as percent disease control compared to untreated when an appropriate level of disease damage appears in untreated check leaf disks (12 to 14 days after application). The following compounds at 200 ppm in the applied formulation give at least 80% disease control in this test when compared to untreated control leaf disks under the same conditions, which show extensive disease development.

Structure (SMILES): CNC(=S)c1ccnn1Cc1ccc(-c2noc(C(F)(F)F)n2)cc1 [Compound 1.1, N-methyl-2-[[4-[5-(trifluoromethyl)-1,2,4-oxadiazol-3-yl]phenyl]methyl] pyrazole-3-carbothioamide]
- inhibition at 20 ppm [1]: ≥ 80%
- pest or weed control at 200 ppm [2]: ≥ 80%
- pest or weed control at 200 ppm [3]: ≥ 80%
- pest or weed control at 200 ppm (Phakopsora pachyrhizi): ≥ 80%
- melting point: 159 to 164 °C

Structure (SMILES): CN(C)C(=S)c1ncn(Cc2ccc(-c3noc(C(F)(F)F)n3)cc2)n1 [Compound 1.2, N,N-dimethyl-1-[[4-[5-(trifluoromethyl)-1,2,4-oxadiazol-3-yl]phenyl]methyl]-1,2,4-triazole-3-carbothioamide]
- inhibition at 20 ppm [1]: ≥ 80%
- pest or weed control at 200 ppm [2]: ≥ 80%
- pest or weed control at 200 ppm [3]: ≥ 80%
- pest or weed control at 200 ppm (Phakopsora pachyrhizi): ≥ 80%

Structure (SMILES): FC(F)(F)c1nc(-c2ccc(Cn3ccc(C(=S)NC4CC4)n3)cc2)no1 [Compound 1.3, N-cyclopropyl-1-[[4-[5-(trifluoromethyl)-1,2,4-oxadiazol-3-yl]phenyl]methyl] pyrazole-3-carbothioamide]
- inhibition at 20 ppm [1]: ≥ 80%
- pest or weed control at 200 ppm [2]: ≥ 80%
- pest or weed control at 200 ppm [3]: ≥ 80%
- pest or weed control at 200 ppm (Phakopsora pachyrhizi): ≥ 80%

Structure (SMILES): CNC(=S)c1ncnn1Cc1ccc(-c2noc(C(F)(F)F)n2)cc1 [Compound 1.4, N-methyl-2-[[4-[5-(trifluoromethyl)-1,2,4-oxadiazol-3-yl]phenyl]methyl]-1,2,4-triazole-3-carbothioamide]
- inhibition at 20 ppm [1]: ≥ 80%
- pest or weed control at 200 ppm [2]: ≥ 80%
- pest or weed control at 200 ppm [3]: ≥ 80%
- pest or weed control at 200 ppm (Phakopsora pachyrhizi): ≥ 80%

Structure (SMILES): CNC(=S)c1ncnn1Cc1ccc(-c2noc(C(F)(F)F)n2)s1 [Compound 1.5, N-methyl-2-[[5-[5-(trifluoromethyl)-1,2,4-oxadiazol-3-yl]-2-thienyl]methyl]-1,2,4-triazole-3-carbothioamide]
- inhibition at 20 ppm [1]: ≥ 80%
- pest or weed control at 200 ppm [2]: ≥ 80%
- pest or weed control at 200 ppm [3]: ≥ 80%
- pest or weed control at 200 ppm (Phakopsora pachyrhizi): ≥ 80%
- melting point: 86 to 95 °C

Structure (SMILES): CNC(=S)c1ccn(Cc2ccc(-c3noc(C(F)(F)F)n3)s2)n1 [Compound 1.6, N-methyl-1-[[5-[5-(trifluoromethyl)-1,2,4-oxadiazol-3-yl]-2-thienyl]methyl]pyrazole-3-carbothioamide]
- inhibition at 20 ppm [1]: ≥ 80%
- pest or weed control at 200 ppm [2]: ≥ 80%
- pest or weed control at 200 ppm [3]: ≥ 80%
- pest or weed control at 200 ppm (Phakopsora pachyrhizi): ≥ 80%
- melting point: 118 to 122 °C

Structure (SMILES): CCONC(=S)c1ccn(Cc2ccc(-c3noc(C(F)(F)F)n3)s2)n1 [Compound 1.7, N-ethoxy-1-[[5-[5-(trifluoromethyl)-1,2,4-oxadiazol-3-yl]-2-thienyl]methyl]pyrazole-3-carbothioamide]
- inhibition at 20 ppm [1]: ≥ 80%
- pest or weed control at 200 ppm [2]: ≥ 80%
- pest or weed control at 200 ppm [3]: ≥ 80%
- pest or weed control at 200 ppm (Phakopsora pachyrhizi): ≥ 80%

Structure (SMILES): CN(C)C(=S)c1ncn(Cc2ccc(-c3noc(C(F)(F)F)n3)s2)n1 [Compound 1.8, N,N-dimethyl-1-[[5-[5-(trifluoromethyl)-1,2,4-oxadiazol-3-yl]-2-thienyl]methyl]-1,2,4-triazole-3-carbothioamide]
- inhibition at 20 ppm [1]: ≥ 80%
- pest or weed control at 200 ppm [2]: ≥ 80%
- pest or weed control at 200 ppm [3]: ≥ 80%
- pest or weed control at 200 ppm (Phakopsora pachyrhizi): ≥ 80%
- melting point: 112 to 118 °C

Structure (SMILES): CNC(=S)c1cnn(C(C)c2ccc(-c3noc(C(F)(F)F)n3)s2)c1 (stereo not drawn) [Compound 1.9, N-methyl-1-[1-[5-[5-(trifluoromethyl)-1,2,4-oxadiazol-3-yl]-2-thienyl]ethyl]pyrazole-4-carbothioamide]
- inhibition at 20 ppm [1]: ≥ 80%
- pest or weed control at 200 ppm [2]: ≥ 80%
- pest or weed control at 200 ppm [3]: ≥ 80%
- pest or weed control at 200 ppm (Phakopsora pachyrhizi): ≥ 80%

Structure (SMILES): CC(c1ccc(-c2noc(C(F)(F)F)n2)s1)n1cc(C(=S)N2CCC2)cn1 (stereo not drawn) [Compound 1.10, azetidin-1-yl-[1-[1-[5-[5-(trifluoromethyl)-1,2,4-oxadiazol-3-yl]-2-thienyl]ethyl]pyrazol-4-yl]methanethione]
- inhibition at 20 ppm [1]: ≥ 80%
- pest or weed control at 200 ppm [2]: ≥ 80%
- pest or weed control at 200 ppm [3]: ≥ 80%
- pest or weed control at 200 ppm (Phakopsora pachyrhizi): ≥ 80%
- melting point: 75 to 83 °C

Structure (SMILES): FC(F)(F)c1nc(-c2ccc(Cn3ccnc3C(=S)NC3CC3)s2)no1 [Compound 1.11, N-cyclopropyl-1-[[5-[5-(trifluoromethyl)-1,2,4-oxadiazol-3-yl]-2-thienyl]methyl] imidazole-2-carbothioamide]
- inhibition at 20 ppm [1]: ≥ 80%
- pest or weed control at 200 ppm [2]: ≥ 80%
- pest or weed control at 200 ppm [3]: ≥ 80%
- pest or weed control at 200 ppm (Phakopsora pachyrhizi): ≥ 80%

Structure (SMILES): NC(=S)c1nccn1Cc1ccc(-c2noc(C(F)(F)F)n2)s1 [Compound 1.12, 1-[[5-[5-(trifluoromethyl)-1,2,4-oxadiazol-3-yl]-2-thienyl]methyl] imidazole-2-carbothioamide]
- inhibition at 20 ppm [1]: ≥ 80%
- pest or weed control at 200 ppm [2]: ≥ 80%
- pest or weed control at 200 ppm [3]: ≥ 80%
- pest or weed control at 200 ppm (Phakopsora pachyrhizi): ≥ 80%
- melting point: 170 to 172 °C

Structure (SMILES): FC(F)(F)c1nc(-c2ccc(Cn3cc(CNC(=S)C4CC4)cn3)s2)no1 [Compound 1.13, N-[[1-[[5-[5-(trifluoromethyl)-1,2,4-oxadiazol-3-yl]-2-thienyl]methyl]pyrazol-4-yl]methyl] cyclopropane carbothioamide]
- inhibition at 20 ppm [1]: ≥ 80%
- pest or weed control at 200 ppm [2]: ≥ 80%
- pest or weed control at 200 ppm [3]: ≥ 80%
- pest or weed control at 200 ppm (Phakopsora pachyrhizi): ≥ 80%
- melting point: 165.5 to 167 °C

Structure (SMILES): CCCNC(=S)c1nccn1Cc1ccc(-c2noc(C(F)(F)F)n2)s1 [Compound 1.15, N-propyl-1-[[5-[5-(trifluoromethyl)-1,2,4-oxadiazol-3-yl]-2-thienyl]methyl] imidazole-2-carbothioamide]
- inhibition at 20 ppm [1]: ≥ 80%
- pest or weed control at 200 ppm [2]: ≥ 80%
- pest or weed control at 200 ppm [3]: ≥ 80%
- pest or weed control at 200 ppm (Phakopsora pachyrhizi): ≥ 80%
